Drawing on ChEMBL document CHEMBL1135283, “Carbonic anhydrase activators: human isozyme II is strongly activated by oligopeptides incorporating the carboxyterminal sequence of the bicarbonate anion exchanger AE1” (Bioorg Med Chem Lett, 2002), this text covers KA for 16 molecules.

Molecules are shown by their SMILES. Where a SMILES comes first, the peptide text is derived from it. The star is where a group is joined. Boc = CC(C)(C)OC(=O)*

The target in test [1] is Carbonic anhydrase 2 (Homo sapiens) (UniProt P00918). As to the kind of experiment: Tested in vitro for activation of Human cloned isozyme carbonic anhydrase II (hCA II).
In test [2] the target is T1, Carbonic anhydrase 4 (Bos taurus) (UniProt Q95323).
T1 sequence (whole entry): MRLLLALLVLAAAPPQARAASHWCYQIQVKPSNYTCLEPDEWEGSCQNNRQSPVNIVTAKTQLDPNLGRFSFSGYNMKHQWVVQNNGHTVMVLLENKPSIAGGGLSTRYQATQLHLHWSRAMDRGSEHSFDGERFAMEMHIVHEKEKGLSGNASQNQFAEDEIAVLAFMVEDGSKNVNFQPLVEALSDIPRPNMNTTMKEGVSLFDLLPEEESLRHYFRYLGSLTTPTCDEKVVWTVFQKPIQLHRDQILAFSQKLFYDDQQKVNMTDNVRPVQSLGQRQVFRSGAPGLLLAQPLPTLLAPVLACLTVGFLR
Description: Tested in vitro for activation of carbonic anhydrase IV (bCA IV), purified from bovine lung microsomes. The conditions noted are these: Microsome.

In test [3] the target is Carbonic anhydrase 1 (Homo sapiens) (UniProt P00915). As to the kind of experiment: Tested in vitro for activation of Human cloned isozyme carbonic anhydrase I (hCA I).
Carbonic anhydrase 1 (Homo sapiens), sequence (P00915 2-261 limits assumed): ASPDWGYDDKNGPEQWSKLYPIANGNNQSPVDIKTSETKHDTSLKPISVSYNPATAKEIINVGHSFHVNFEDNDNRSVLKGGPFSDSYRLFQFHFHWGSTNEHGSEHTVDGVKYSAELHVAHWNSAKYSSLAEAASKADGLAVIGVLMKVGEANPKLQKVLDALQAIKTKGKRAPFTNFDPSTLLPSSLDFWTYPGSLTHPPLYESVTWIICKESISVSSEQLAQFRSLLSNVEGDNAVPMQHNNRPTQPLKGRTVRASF

In the case of `C[C@H](NC(=O)[C@H](CC(=O)O)NC(=O)OC(C)(C)C)C(=O)N[C@@H](CC(=O)O)C(=O)N[C@@H](CC(=O)O)C(=O)O` (Boc-DADD-OH), the results for the KA in test [1], in test [2] and in test [3] were 131 µM, > 200 µM and > 200 µM, respectively.
As to `C[C@H](NC(=O)[C@@H](N)CC(=O)O)C(=O)O` (H-Asp-Ala-OH), the KA in test [1] was determined as 33 µM; in test [2], 55 µM; in test [3] it was 40 µM.
In the case of `C[C@H](NC(=O)[C@@H](N)CC(=O)O)C(=O)N[C@@H](CC(=O)O)C(=O)N[C@@H](CC(=O)O)C(=O)O` (H-DADD-OH), the KA in test [1] stood at 0.2 µM; in test [2], 46 µM; in test [3] it was 36 µM.
For `CC(=O)N[C@@H](CC(=O)O)C(=O)N[C@@H](C)C(=O)O` (Ac-Asp-Ala-OH), the KA in test [1], in test [2] and in test [3] was > 200 µM in each case.
On to `N[C@@H](CC(=O)O)C(=O)O`, for which the KA in test [1] was determined as 130 µM; in test [2], 60 µM; in test [3], 48 µM.
Turning to `CC(C)(C)OC(=O)N[C@@H](CC(=O)O)C(=O)O`, the KA in test [1], in test [2] and in test [3] was > 200 µM each time.
Consider `N[C@@H](CC(=O)O)C(=O)N[C@@H](CC(=O)O)C(=O)N[C@@H](CC(=O)O)C(=O)O` (H-Asp-Asp-Asp-OH), for which the KA was 11 µM in test [1], 45 µM in test [2] and 40 µM in test [3].
The corresponding values for `C[C@H](N)C(=O)N[C@@H](C)C(=O)O` (H-Ala-Ala-OH) are 110 µM, 62 µM and 50 µM.
The corresponding values for `CC(C)(C)OC(=O)N[C@@H](CC(=O)O)C(=O)N[C@@H](CC(=O)O)C(=O)O` (Boc-Asp-Asp-OH) are > 200 µM, > 200 µM and > 200 µM.
`CC(=O)N[C@@H](CC(=O)O)C(=O)N[C@@H](CC(=O)O)C(=O)O` (Ac-Asp-Asp-OH): the KA in test [1], in test [2] and in test [3] was > 200 µM each time.
For the molecule `C[C@H](N)C(=O)O`, the KA in test [1] amounted to 150 µM; in test [2], 66 µM; in test [3], 54 µM.
The corresponding values for `C[C@H](NC(=O)[C@@H](N)CC(=O)O)C(=O)N[C@@H](CC(=O)O)C(=O)O` (H-Asp-Ala-Asp-OH) are 10 µM, 48 µM and 38 µM.
For the molecule `N[C@@H](CC(=O)O)C(=O)N[C@@H](CC(=O)O)C(=O)O` (H-Asp-Asp-OH), the KA is 21 µM in test [1], 51 µM in test [2] and 39 µM in test [3].
The corresponding values for `CC(C)(C)OC(=O)N[C@@H](CC(=O)O)C(=O)N[C@@H](CC(=O)O)C(=O)N[C@@H](CC(=O)O)C(=O)N[C@@H](CC(=O)O)C(=O)O` (Boc-DDDD-OH) are 124 µM, > 200 µM and > 200 µM.
For the molecule `N[C@@H](CC(=O)O)C(=O)N[C@@H](CC(=O)O)C(=O)N[C@@H](CC(=O)O)C(=O)N[C@@H](CC(=O)O)C(=O)O` (H-DDDD-OH), the KA in test [1] stood at 0.1 µM; in test [2], 43 µM; in test [3], 35 µM.
The corresponding values for `CC(C)(C)OC(=O)N[C@@H](CC(=O)O)C(=O)N[C@@H](CC(=O)O)C(=O)N[C@@H](CC(=O)O)C(=O)O` (Boc-Asp-Asp-Asp-OH) are 145 µM, > 200 µM and > 200 µM.
